“Also recorded” adds a separate entry of the source.
What was measured:
Her2 = assay: Degradation of Her2 in BT-474 cells (Method 1, Western blot); format: cell-based, Human; conditions: 0.5 μM, overnight
Method: Human high-Her2 breast carcinoma BT474 (HTB-20), SK-BR-3 (HTB-30) and MCF-7 breast carcinoma (HTB-22) from American Type Culture Collection, VA, USA were grown in Dulbecco's modified Eagle's medium with 4 mM L-glutamine and antibiotics (100 IU/ml penicillin and 100 ug/ml streptomycine;GibcoBRL). To obtain exponential cell growth, cells were trypsinized, counted and seeded at a cell density of 0.5×10^6 cells/ml regularly, every 3 days. All experiments were performed on day 1 after cell passage.
BT-474 cells are treated with 0.5 μM, 2 μM, or 5 μM of 17AAG (a positive control) or 0.5 μM, 2 μM, or 5 μM of a compound of the invention overnight in DMEM medium. After treatment, each cytoplasmic sample is prepared from 1×10^6 cells by incubation of cell lysis buffer (#9803, cell Signaling Technology) on ice for 10 minutes. The resulting supernatant used as the cytosol fractions is dissolved with sample buffer for SDS-PAGE and run on a SDS-PAGE gel, blotted onto a nitrocellulose membrane by using semi-dry transfer. Non-specific binding to nitrocellulose is blocked with 5% skim milk in TBS with 0.5% Tween at room temperature for 1 hour, then probed with anti-Her2/ErB2 mAb (rabbit IgG, #2242, Cell Signaling) and anti-Tubulin (T9026, Sigma) as housekeeping control protein. […]

[1] = tested on: leukemia cells that express either wild type FLT3 or FLT3-ITD mutations; conditions: cited from earlier work
FLT3 with Hsp90 = conditions: cited from earlier work
Kasumi-1 cells = conditions: Kasumi-1 acute myeloid leukemia cell line with c-Kit mutation; cited from earlier work
Pkd1^−/− mice = assay: Cyst formation and kidney growth in conditional Pkd1-/- mice (MRI, kidney weight, cystic index, BUN); format: in vivo
Method: All experiments involving mice were approved by the Institutional Animal Care and Use Committee of Fox Chase Cancer Center. Conditional Pkd1^−/− mice using the Cre-flox regulatory system for targeted inactivation of the Pkd1 gene in vivo were kindly provided by Gregory Germino (National Institute of Diabetes and Digestive and Kidney Diseases). Pkd1fl/fl;Cre/Esr1+ (referred to as Pkd1^−/−) and control mice (Pkd1fl/fl;Cre/Esr1−; referred to as Control) mice were injected intraperitoneally with tamoxifen (250 mg/kg body weight) on postnatal day P37/P38 (+/−1 day) to induce Pkd1 deletion in the test group.
Compound 111 was formulated in 5% dextrose titrated to pH 4, and administered by tail vein injection in anesthetized mice under sterile conditions using a volume of 10 μl/g body weight. Vehicle treated mice were injected with 5% dextrose only. To investigate the activity of compound 111 on early kidney disease, mice were treated with compound 111 for 5 months, starting 2-3 days after Pkd1 deletion. Treatment began with a weekly schedule up to 4 months of age, including one week off in the 3rd month of age, followed by a bi-weekly schedule from 4 to 6 month of age. 24 hours after the 16th injection, blood samples were collected and the mice were sacrificed to collect organs for histopathological and biochemical analysis. To investigate the activity of compound 111 on Late kidney disease, mice were dosed weekly with compound 111 for 10 weeks starting at 4 months of age. 24 hours after the 11th dose (10 weeks of treatment), blood samples were collected and the mice were sacrificed to collect organs for histopathological and biochemical analysis.
To assess the utility of HSP90 inhibition in ADPKD, Pkd1fl/fl;Cre/Esr1+ (referred to as Pkd1^−/−) and control Pkd1fl/fl;Cre/Esr1− (referred to as control) mice were injected with tamoxifen at 5-6 weeks of age to inactivate the Pkd1 gene. HSP90 was inhibited using compound, a resorcinolic triazole that competitively binds the N-terminal ATP pocket of HSP90. In one cohort of mice (designated Early), mice were dosed from 6 weeks-4 months of age, to assess drug effects on disease initiation (FIG. 1). […] (FIGS. 2-3)
In a second cohort (designated Late), mice were dosed from 4-6 months of age, to assess drug effects on mice with Late cysts, in this case using doses of 50 mg/kg and 100 mg/kg to explore dose range (FIGS. 4-6).
Mice were imaged in a vertical bore MR system at a field strength of 7 Tesla, using a Bruker DRX300 spectrometer, Paravision 3.0.2 software, and a single tuned ^1H cylindrical radiofrequency coil. […]
Using NIH ImageJ, an open source image analysis program, kidney and cyst volume were quantified. […]

Structure (SMILES) | degradation of Her2 (Her2) | growth of leukemia cells [1] | association of FLT3 with Hsp90 (FLT3 with Hsp90) | apoptosis (Kasumi-1 cells) | blood urea nitrogen (BUN) (Pkd1^−/− mice; Early cohort, 75 mg/kg, blood drawn at euthanasia) | formation of renal cysts and kidney growth (Pkd1^−/− mice; Early cohort, Pkd1−/− mice, 75 mg/kg, tail vein injection, 5 months) | reduction of cyst volume and kidney growth (Pkd1^−/− mice; Late cohort, 50 mg/kg and 100 mg/kg, 1×/week for 10 weeks, tail vein injection) | BUN scores (Pkd1^−/− mice; Late cohort, 100 mg/kg, 10 weeks)
C=CCNC1=C2C[C@@H](C)C[C@H](OC)[C@H](O)[C@@H](C)/C=C(\C)[C@H](OC(N)=O)[C@@H](OC)/C=C\C=C(/C)C(=O)NC(=CC1=O)C2=O [Compound 17AAG] | partial degradation | inhibited | disrupt the association of FLT3 with Hsp90 | induce apoptosis |  |  |  | 
CC(C)c1cc(-c2nnc(C(=O)NCCN3CCOCC3)n2-c2ccc(CN3CCOCC3)cc2)c(O)cc1O [Compound 111, 5-(2,4-dihydroxy-5-isopropylphenyl)-N-(2-morpholinoethyl)-4-(4-(morpholinomethyl)phenyl)-4H-1,2,4-triazole-3-carboxamide] |  |  |  |  | trend towards reduction | very significantly reduced; also recorded: inhibited cyst formation, kidney growth | significant, dose-dependent effect; also recorded: reduced cystic burden | reduced BUN scores to normal levels
